According to patent US20260092085A1, “SYNTHETIC TRIPLEX PEPTIDE NUCLEIC ACID-BASED INHIBITORS FOR CANCER THERAPY” (University of Connecticut, priority 2022, published 2026):
{RR} = two arginine residues at the PNA terminus

How the values were obtained:
[1] = system: miR-155; assay: miR-155 gene expression by RT-PCR in U2932 cells; type: cell-based, human; conditions: U2932, 500 nM, 48 hours, relative to scrambled control
Method: FIGS. 3A-F show cell culture-based functional assay in U2932 lymphoma cells. (3A) γtcPNA-155-TAMRA uptake in the U2932 lymphoma cell line: Representative flow cytometry traces of TAMRA fluorescence in U2932 cells after treatment with 500 nM dose of γtcPNA-155-TAMRA for 48 hours. The data was analyzed by FlowJo software. (3B) Normalized miR-155 gene expression levels in U2932 after treatment with phosphate buffer saline (PBS) as a control and with 500 nM dose of Scr-γtcPNA-155, PNA-155, γPNA-155 and γtcPNA-155 for 48 hours compared to average control U6 (n=3), data represented as mean±standard error mean (SEM), Statistical analysis was performed using Unpaired two-tailed t-test. Further, statistical analysis was performed relative to Scr-γtcPNA-155 treated cells. ***p<0.001. (3C) Gene expression level of miR-155 downstream genes, tumor suppressor proteins (FOXO3A, CUX1, SOCS1, CSF1R, JARID2, SHIP1, PICALM, PDCD4, BACH1, WEE1, TP53TG3, CASP3, PTEN) in U2932 cell line after treatment with PBS as a control and with after treatment with 500 nM of Scr-γtcPNA-155, PNA-155, γPNA-155 and γtcPNA-155 for 48 hours. Data is normalized with average GAPDH control (n=3), and represented as mean±SEM, *p<0.05. Unpaired two-tailed t-test was used for statistical analysis and analysis was performed relative to Scr-γtcPNA-155 treated cells. (3D) Gene expression level of miR-155 downstream genes MCL1 in U2932 cell line after treatment with PBS as a control and 500 nM of Scr-γtcPNA-155, PNA-155, γPNA-155 and γtcPNA-155 for 48 hours. Data is normalized with average GAPDH control (n=3), and represented as mean±SEM, *p<0.05, **p<0.01 and ***p<0.001. […] (3E) Representative western blot of Mcl-1 and its quantification (n=3 technical replicate) and (3F) Caspase-3 protein and its quantification (n=3 technical replicate) in U2932 cell line after treatment with 500 nM of Scr-γtcPNA-155, PNA-155 and γtcPNA-155 for 48 hours. […] Numbers above western blot panels represent relative quantification of the respective bands using ImageJ software and normalized relative to loading control and treatment control. […]

[2] = system: miR-155 downstream genes; assay: Gene expression of miR-155 downstream genes by RT-PCR in U2932 cells; type: cell-based, human; conditions: U2932, 500 nM, 48 hours
Method: FIGS. 3A-F show cell culture-based functional assay in U2932 lymphoma cells. (3A) γtcPNA-155-TAMRA uptake in the U2932 lymphoma cell line: Representative flow cytometry traces of TAMRA fluorescence in U2932 cells after treatment with 500 nM dose of γtcPNA-155-TAMRA for 48 hours. The data was analyzed by FlowJo software. (3B) Normalized miR-155 gene expression levels in U2932 after treatment with phosphate buffer saline (PBS) as a control and with 500 nM dose of Scr-γtcPNA-155, PNA-155, γPNA-155 and γtcPNA-155 for 48 hours compared to average control U6 (n=3), data represented as mean±standard error mean (SEM), Statistical analysis was performed using Unpaired two-tailed t-test. Further, statistical analysis was performed relative to Scr-γtcPNA-155 treated cells. ***p<0.001. (3C) Gene expression level of miR-155 downstream genes, tumor suppressor proteins (FOXO3A, CUX1, SOCS1, CSF1R, JARID2, SHIP1, PICALM, PDCD4, BACH1, WEE1, TP53TG3, CASP3, PTEN) in U2932 cell line after treatment with PBS as a control and with after treatment with 500 nM of Scr-γtcPNA-155, PNA-155, γPNA-155 and γtcPNA-155 for 48 hours. Data is normalized with average GAPDH control (n=3), and represented as mean±SEM, *p<0.05. Unpaired two-tailed t-test was used for statistical analysis and analysis was performed relative to Scr-γtcPNA-155 treated cells. (3D) Gene expression level of miR-155 downstream genes MCL1 in U2932 cell line after treatment with PBS as a control and 500 nM of Scr-γtcPNA-155, PNA-155, γPNA-155 and γtcPNA-155 for 48 hours. Data is normalized with average GAPDH control (n=3), and represented as mean±SEM, *p<0.05, **p<0.01 and ***p<0.001. Statistical analysis was performed using Unpaired two-tailed t-test. Analysis was performed relative to Scr-γtcPNA-155 treated cells. (3E) Representative western blot of Mcl-1 and its quantification (n=3 technical replicate) and (3F) Caspase-3 protein and its quantification (n=3 technical replicate) in U2932 cell line after treatment with 500 nM of Scr-γtcPNA-155, PNA-155 and γtcPNA-155 for 48 hours. Data is represented as mean±SEM and unpaired two-tailed t-test was used for statistical analysis. *p<0.05 **p<0.01. Numbers above western blot panels represent relative quantification of the respective bands using ImageJ software and normalized relative to loading control and treatment control.
Gene expression by RT-PCR: 400,000 U2932 cells were seeded in a 12 well plate. The cells were treated with 500 nM PNA-155, gamma tcPNA-155, gamma PNA-155, Scr gamma tcPNA-155 or were PBS treated (control) for 48 hrs in an incubator (37° C. and 5% CO2). The cells were centrifuged at 2000 rpm for 4 mins at 4° C. The total RNA from the cell pellet was extracted using RNeasy® mini kit (Qiagen). The cDNA was prepared in thermal cycler (Bio-rad) using reverse transcriptase, RNase inhibitor, dNTPs, nuclease-free water and RT primers specific for miR-155 and U6. Random primers were used for the preparation of cDNA for downstream targets. The cDNA was amplified using miR-155 assay, U6 assay, or specific downstream target assays in CFX Connect™ Real-time PCR detection system (Bio-rad). The samples were subjected to polymerase activation (95° C. for 10 mins), followed by 40 cycles of denaturation (95° C. for 15 sec) and annealing (60° C. for 1 min). The 2^−ΔΔCT method was used to calculate the fold change in target genes.

[3] = system: U2932 subcutaneous tumors; assay: Tumor growth in U2932 derived xenograft model; type: in vivo, NSG mice; conditions: intra-tumoral injections days 0, 7, 14
Method: Mouse tumor xenograft: Female NSG mice (NOD.Cg-Prkdcscid Il2rgtm1Wjl/SzJ, strain 005557) weighing 20-23 g were procured from Jackson laboratories. 1×10^7 U2932 cells suspended in RPMI-1640 medium were injected subcutaneously in the right and left flank of 6-week-old NSG mice. The mice developed a small bump in 2 weeks. When the tumor volume reached 100-200 mm^3, the mice were randomly assigned to the treatment group (n=6 per group).
RNA and Protein extraction from tumor samples: The mice were injected intra-tumorally with 1 mg kg-1 dose of PNA-155, γtcPNA-155, γPNA-155, Scr-γtcPNA-155 or were untreated. The injections were repeated two additional times after 1 week each. The length, breadth, and depth of the tumors were measured daily using a vernier caliper. The mice were euthanized when the tumor volumes reached 2000 mm^3. The resected tumor sections were finely minced using a sterile blade and suspended in dissociation media (4 ml) comprising of RPMI-1640, 1.2 mg/ml dispase, and 0.5 mg/ml collagenase for 90 mins at 500 rpm at 37° C. The dissociated tumors were washed with buffer saline at 2500 rpm (4 mins) at 4° C. and then suspended in 0.25% trypsin for 4 mins at room temperature. RPMI 1640 media was added to the trypsinized tumor mass, and the cells were passed through a 70 um filter. The cells were centrifuged at 2500 rpm for 4 mins at 4° C. The cell pellet was then suspended in 1×RBC lysis buffer (Sigma) and incubated on ice for 10 mins. PBS was added to the cells and the cells were passed through a 40 um filter. The cells were centrifuged at 2500 rpm for 4 mins at 4° C. The cell pellet was resuspended in 0.5% BSA in PBS. The mouse cells were removed from the tumor cells using a mouse cell depletion kit (Miltenyi Biotec) according to the manufacturer's protocol. The enriched tumor cells from each tumor sample were divided into two fractions. RNA for gene expression analysis was extracted from one tumor fraction by the same procedure as mentioned earlier. The protein for western blot analysis was extracted from the second fraction using the method described above.
For the efficacy study, each mouse received three intra-tumoral injections of either γtcPNA-155, γPNA-155 or PNA-155 on days 0, 7, 14. We noticed that the control and scrambled treated tumors reached 2000 mm^3 much faster during our study, so we could not inject a third time in these mice. […] In contrast, as stated earlier, there was no effect on the control and scrambled PNA control on the tumor volume.

Substance	miR-155 inhibition [1]	reduction in MCL1 gene expression levels [2]	tumor growth / tumor volume [3]	de-repression of miR-155 target tumor suppressor genes [2]	increase in CSF1R levels ([2]; in comparison to PNA-155)	increase in CUX1 levels ([2]; in comparison to PNA-155)	increase in SHIP1 levels ([2]; in comparison to PNA-155)
PNA-155: conventional full-length regular PNA (23mer), RR-ACCCCTATCACGATTAGCATTAA-RR, SEQ ID NO: 1 (all peptide nucleic acid (PNA), 5' {RR}, 3' {RR}) [reference compound]	approximately 80%	10%	reduced the tumor growth				
γtcPNA-155: serine gamma tail-clamp anti-miR-155 PNA, RR-TJJJJ-OOO-ACCCCTATCACGATTAGCATTAA-RR, SEQ ID NO: 3 (all peptide nucleic acid (PNA); serine gamma PNA, tail-clamp TJJJJ via linkers, Arg-Arg at both ends)	~90%	40%	reduced the tumor growth	significant de-repression	1.8 fold	1.6 fold	1.4 fold
